Values quoted from earlier work, collected in publication PMC10837484 (Clinical and Translational Science, 2024).

Assays:
[1] = molecular target: T1, LTA4H (Homo sapiens, UniProt P09960); settings: cited from earlier work
T1 sequence (P09960 1-611): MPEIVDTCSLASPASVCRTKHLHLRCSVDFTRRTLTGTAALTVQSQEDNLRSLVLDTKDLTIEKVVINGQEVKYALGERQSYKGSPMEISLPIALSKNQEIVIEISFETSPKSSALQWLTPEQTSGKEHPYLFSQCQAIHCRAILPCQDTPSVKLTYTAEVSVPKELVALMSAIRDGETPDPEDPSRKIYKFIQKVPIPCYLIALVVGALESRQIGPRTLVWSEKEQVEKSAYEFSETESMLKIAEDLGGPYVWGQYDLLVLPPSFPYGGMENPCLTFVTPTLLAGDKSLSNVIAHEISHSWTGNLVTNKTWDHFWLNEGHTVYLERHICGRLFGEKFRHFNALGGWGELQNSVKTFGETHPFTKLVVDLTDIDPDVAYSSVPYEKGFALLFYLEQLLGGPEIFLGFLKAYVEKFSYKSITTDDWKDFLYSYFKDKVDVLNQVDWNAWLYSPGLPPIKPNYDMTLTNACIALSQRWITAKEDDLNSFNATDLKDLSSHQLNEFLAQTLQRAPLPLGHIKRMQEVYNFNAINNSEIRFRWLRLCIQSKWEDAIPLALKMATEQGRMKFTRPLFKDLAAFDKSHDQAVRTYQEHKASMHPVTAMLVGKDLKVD

[2] = test system: LTA4H; settings: cited from earlier work
[3] = molecular target: T1, LTA4H; settings: patients with asthma; cited from earlier work

Compound | LTB4 reduction in ex vivo stimulated blood ([1]; after 7 days of once daily treatment) | in vitro potency relative to other clinical LTA4H inhibitors [2] | reduction of LTB4 levels ([1]; over a 24 h period at doses of 100 mg) | reduction in sputum LTB4 [3] | potency in in vitro cellular assays [2]
O=C(O)CCCN1CCC[C@H]1COc1ccc(Oc2ccc(Cl)cc2)cc1 [DG‐051] | up to 70% | lowest potency | – | – | –
CC(=O)NC1C[C@H]2CC[C@@H](C1)N2Cc1ccc(Oc2nc3ncccc3s2)cc1 (some centres unmarked) [JNJ‐40929837] | – | – | greater than 95% | 92% | highly potent
